Results on 3 molecules are retold here after ChEMBL document CHEMBL1156399, “A quinolone alkaloid with antioxidant activity from the aleurone layer of anthocyanin-pigmented rice” (J Nat Prod, 2001).

What is called IC50 is the concentration that inhibits the measured activity by half.

In brackets after ≈: the same amount, converted by molar mass.

The test system of the assay is Radical scavenging activity. Nature of the assay: Antioxidant activity assessed as DPPH radical scavenging activity. The class given is functional. A general note: DPPH is a stable violet radical that fades when it is reduced.

As for `COC(=O)c1cc(=O)[nH]c2ccc(O)cc12`, the concentration for half-maximal inhibition (IC50) worked out at 36.4 µg/mL (≈ 166 µM).

`COc1ccc(O)c(C(C)(C)C)c1.COc1ccc(O)cc1C(C)(C)C` [BUTYLATED HYDROXYANISOLE]: the IC50 worked out at 20.6 µg/mL. To `O=C1O[C@H]([C@@H](O)CO)C(O)=C1O` [ASCORBIC ACID] belongs 21.8 µg/mL (≈ 124 µM).
